Experimental data from US20230048678A1, “ICAN DERIVATIVES FOR ANTIFUNGAL USE” (DEBRECENI EGYETEM, priority 2019, published 2023).

Assays:
Type in all cases: cell-based
C. albicans isolates = test: CLSI M27-A3 broth microdilution on Candida isolates (Table 2)
Protocol: (§1) The tested C. albicans, C. tropicalis, C. parapsilosis, C. glabrata and C. krusei ATCC strains and clinical isolates are listed in Table 2. MICs were determined according to the CLSI M27-A3 [22]. Antifungal agents were dissolved in 100% DMSO and diluted further in RPMI-1640 (with L-glutamine but without bicarbonate) (Sigma, Budapest, Hungary), and buffered to pH 7.0 with 0.165 M morpholinopropanesulfonic acid (MOPS; Sigma, Budapest, Hungary). The final concentration ranges used for AMB and ICAN derivatives were 0.125 to 4 μg/ml and 0.04 to 20 μg/ml, respectively. Yeast cell suspensions were prepared in RPMI 1640 medium and were adjusted to give a final inoculum concentration of 0.5×10^3 to 2.5×10^3 cells/ml. MICs were read visually after 48-h incubation at 35° C. using the partial (50%) inhibition (for ICAN derivatives) (PI) and total inhibition (for AMB and ICAN derivatives) (TI) criteria. MICs were determined at least twice. For amphotericin B isolates with MIC values of ≤2 mg/L were considered wild-types. [Pfaller M A, 2012]

C. tropicalis isolates = test: as above
Protocol: as §1

C. krusei isolates = test: as above
Protocol: as §1

C. parapsilosis isolates = test: as above
Protocol: as §1

C. glabrata isolates = test: as above
Protocol: as §1

[1] = test system: clinical Candida isolates (C. albicans, C. krusei, C. tropicalis, C. glabrata, C. parapsilosis); test: Broth microdilution, MIC summarised over all clinical Candida isolates; settings: range or bound over all tested isolates of five Candida species
Protocol: The present inventors have discovered that 1-amino-5-isocyanonaphthalene (ICAN) and its derivatives exert excellent antifungal activity against a broad range of Candida species. […] Nevertheless, proper formulation and/or substitution with solubility enhancer groups on the naphthalene core may increase its effectiveness. Based on MIC values (MICPI=0.04−0.3 μg/ml MICTI=0.6 μg/ml) and its low cytotoxicity 1,1-N-dimethylamino-5-isocyanonaphthalene (DIMICAN) was selected to be tested on clinical Candida isolates. […] Amphotericin B (AMB) is an antifungal agent which is effective against a number of medically important fungi. The in vivo applicability of DIMICAN was tested on immunosuppressed mice and control experiments were also conducted with amphotericin B. In the model of acute invasive candidiasis, neutropenic mice were infected intravenously with C. albicans isolate 3666 (3×10^4 cfu/mouse) to establish an acute infection, and all untreated control animals died within 6 days. […]
The tested C. albicans, C. tropicalis, C. parapsilosis, C. glabrata and C. krusei ATCC strains and clinical isolates are listed in Table 2. MICs were determined according to the CLSI M27-A3 [22]. […] MICs were read visually after 48-h incubation at 35° C. using the partial (50%) inhibition (for ICAN derivatives) (PI) and total inhibition (for AMB and ICAN derivatives) (TI) criteria. MICs were determined at least twice. […]

[C-]#[N+]c1cccc2c(N(C)C)cccc12 [DIMICAN, N,N-dimethyl-1-amino-5-isocyanonaphthalene] was tested, and the MICPI (C. albicans isolates; isolate 456) was at most 0.04 µg/mL, the MICTI (C. albicans isolates; isolate 456) was 0.6 µg/mL and the MICPI (C. albicans isolates; isolate 665) was at most 0.04 µg/mL. It also gave an MICTI (C. albicans isolates; isolate 665) of 0.6 µg/mL, an MICPI (C. albicans isolates; isolate 685) of at most 0.04 µg/mL and an MICTI (C. albicans isolates; isolate 685) of 0.6 µg/mL. The MICPI (C. albicans isolates; isolate 720) was at most 0.04 µg/mL, the MICTI (C. albicans isolates; isolate 720) was 0.6 µg/mL and the MICPI (C. albicans isolates; isolate 963) was at most 0.04 µg/mL. The MICTI (C. albicans isolates; isolate 963) was 0.6 µg/mL, the MICPI (C. albicans isolates; isolate 1544) was at most 0.04 µg/mL and the MICTI (C. albicans isolates; isolate 1544) was 0.6 µg/mL. For the same compound, the MICPI (C. albicans isolates; isolate 3666) was at most 0.04 µg/mL, the MICTI (C. albicans isolates; isolate 3666) was 0.6 µg/mL and the MICPI (C. albicans isolates; isolate 8658) was at most 0.04 µg/mL. The MICTI (C. albicans isolates; isolate 8658) was 0.6 µg/mL, the MICPI (C. albicans isolates; isolate ATCC 10231) was at most 0.04 µg/mL and the MICTI (C. albicans isolates; isolate ATCC 10231) was 0.3 µg/mL. It also gave an MICPI (C. tropicalis isolates; isolate 579) of 0.08 µg/mL, an MICTI (C. tropicalis isolates; isolate 579) of 0.6 µg/mL and an MICPI (C. tropicalis isolates; isolate 622) of 0.08 µg/mL. The MICTI (C. tropicalis isolates; isolate 622) was 0.3 µg/mL, the MICPI (C. tropicalis isolates; isolate 1776) was 0.08 µg/mL and the MICTI (C. tropicalis isolates; isolate 1776) was 0.3 µg/mL. It also gave an MICPI (C. tropicalis isolates; isolate 2467) of 0.15 µg/mL, an MICTI (C. tropicalis isolates; isolate 2467) of 1.25 µg/mL and an MICPI (C. tropicalis isolates; isolate 3014) of 0.08 µg/mL. For the same compound, the MICTI (C. tropicalis isolates; isolate 3014) was 0.6 µg/mL, the MICPI (C. tropicalis isolates; isolate 5115) was 0.08 µg/mL and the MICTI (C. tropicalis isolates; isolate 5115) was 1.25 µg/mL. It also gave an MICPI (C. tropicalis isolates; isolate 5806) of 0.08 µg/mL, an MICTI (C. tropicalis isolates; isolate 5806) of 0.15 µg/mL and an MICPI (C. tropicalis isolates; isolate ATCC 750) of 0.15 µg/mL. The MICTI (C. tropicalis isolates; isolate ATCC 750) was 1.25 µg/mL, the MICPI (C. krusei isolates; isolate 749) was 0.08 µg/mL and the MICTI (C. krusei isolates; isolate 749) was 0.08 µg/mL. The MICPI (C. krusei isolates; isolate 1853) was 0.08 µg/mL, the MICTI (C. krusei isolates; isolate 1853) was 0.3 µg/mL and the MICPI (C. krusei isolates; isolate 4364) was at most 0.04 µg/mL. The MICTI (C. krusei isolates; isolate 4364) was 0.15 µg/mL, the MICPI (C. krusei isolates; isolate 5029) was at most 0.04 µg/mL and the MICTI (C. krusei isolates; isolate 5029) was 0.08 µg/mL. For the same compound, the MICPI (C. krusei isolates; isolate 5072) was 0.08 µg/mL, the MICTI (C. krusei isolates; isolate 5072) was 0.3 µg/mL and the MICPI (C. krusei isolates; isolate 25504) was 0.08 µg/mL. It also gave an MICTI (C. krusei isolates; isolate 25504) of 0.3 µg/mL, an MICPI (C. krusei isolates; isolate 34987) of at most 0.04 µg/mL and an MICTI (C. krusei isolates; isolate 34987) of 0.08 µg/mL. It also gave an MICPI (C. krusei isolates; isolate ATCC 6258) of 0.15 µg/mL, an MICTI (C. krusei isolates; isolate ATCC 6258) of 0.3 µg/mL and an MICPI (C. parapsilosis isolates; isolate 4133) of 0.08 µg/mL. The MICTI (C. parapsilosis isolates; isolate 4133) was 0.08 µg/mL, the MICPI (C. parapsilosis isolates; isolate 9613) was 0.15 µg/mL and the MICTI (C. parapsilosis isolates; isolate 9613) was 0.15 µg/mL. For the same compound, the MICPI (C. parapsilosis isolates; isolate 10252) was at most 0.04 µg/mL, the MICTI (C. parapsilosis isolates; isolate 10252) was 0.08 µg/mL and the MICPI (C. parapsilosis isolates; isolate 18154) was 0.08 µg/mL. The MICTI (C. parapsilosis isolates; isolate 18154) was 0.6 µg/mL, the MICPI (C. parapsilosis isolates; isolate 27001) was at most 0.04 µg/mL and the MICTI (C. parapsilosis isolates; isolate 27001) was 0.3 µg/mL. For the same compound, the MICPI (C. parapsilosis isolates; isolate ATCC 22019) was 0.15 µg/mL, the MICTI (C. parapsilosis isolates; isolate ATCC 22019) was 0.6 µg/mL and the MICPI (C. glabrata isolates; isolate 14408) was at most 0.04 µg/mL. For the same compound, the MICTI (C. glabrata isolates; isolate 14408) was 0.08 µg/mL, the MICPI (C. glabrata isolates; isolate 14559) was at most 0.04 µg/mL and the MICTI (C. glabrata isolates; isolate 14559) was 0.3 µg/mL. The MICPI (C. glabrata isolates; isolate 22394) was at most 0.04 µg/mL, the MICTI (C. glabrata isolates; isolate 22394) was 0.3 µg/mL and the MICPI (C. glabrata isolates; isolate 23429) was at most 0.04 µg/mL. For the same compound, the MICTI (C. glabrata isolates; isolate 23429) was 0.3 µg/mL, the MICPI (C. glabrata isolates; isolate 23481) was 0.08 µg/mL and the MICTI (C. glabrata isolates; isolate 23481) was 1.25 µg/mL. The MICPI (C. glabrata isolates; isolate 27643) was 0.08 µg/mL, the MICTI (C. glabrata isolates; isolate 27643) was 0.3 µg/mL and the MICPI (C. glabrata isolates; isolate 28557) was at most 0.04 µg/mL. For the same compound, the MICTI (C. glabrata isolates; isolate 28557) was 0.6 µg/mL, the MICPI (C. glabrata isolates; isolate ATCC 90030) was 0.15 µg/mL and the MICTI (C. glabrata isolates; isolate ATCC 90030) was 0.3 µg/mL. The “total minimum inhibitory concentration (MICTI)” value [1] was 0.08 to 1.25 µg/mL.
